As a reminder, the inhibition is the relative decrease from the control value, in per cent. One may read the IC50 as the concentration that gives 50% inhibition.

SMILES strings stand for the structures.

Common to all, as to type: biochemical
The target of one assay is T1, Aurora B kinase (Homo sapiens, UniProt Q96GD4).
T1 construct: purchased Cell signaling
The assay can be described thus: Aurora B kinase assay ([γ-33P]ATP, CHOCKtide substrate). Particulars: for inhibition at 1 µM: 1.0 μM test compound. The protocol: (§1) Inhibition of Aurora Kinase by the compounds disclosed herein was determined by incubating Aurora kinase, substrate, and a test compound together for a period of time followed by quantifying the resultant phosphorylated product. Specifically, in a well of a 96-well round bottom plate, 25 μL of a reaction mixture containing (1) a test compound disclosed herein (diluted from 9 μM to the desired final concentration), [γ-33P]ATP/ATP mix (10 μM), CHOCKtide (1 μg, Genesis Biotech Inc.), and Aurora-A (1 ng, purchased from Upstate); or (2) a test compound disclosed herein (diluted from 9 μM to the desired final concentration), [γ-33P]ATP/ATP mix (40 μM), CHOCKtide (1 μg, Genesis Biotech Inc.), and Aurora-B (2.5 ng, purchased from Cell signaling); was prepared and incubated at 33° C. for 30 minutes. The reaction was then stopped by adding 5 μL of 3% phosphoric acid. The resultant solution (30 μL) was later harvested by a UniFilter Plate GF/B (PerkinElmer) followed by adding 30 μL of the scintillation cocktail (MicroScint 20, PerkinElmer) to the well. The radioactivity retained on the filter membrane was measured by a luminescence counter (PerkinElmer). IC50 value is defined as the concentration of the test compound which achieves a half-maximal inhibition of the kinase activity.

The next assay has as its target T2, Aurora A kinase (Homo sapiens, UniProt O14965).
T2 construct: purchased Upstate
T2 sequence (O14965 1-403): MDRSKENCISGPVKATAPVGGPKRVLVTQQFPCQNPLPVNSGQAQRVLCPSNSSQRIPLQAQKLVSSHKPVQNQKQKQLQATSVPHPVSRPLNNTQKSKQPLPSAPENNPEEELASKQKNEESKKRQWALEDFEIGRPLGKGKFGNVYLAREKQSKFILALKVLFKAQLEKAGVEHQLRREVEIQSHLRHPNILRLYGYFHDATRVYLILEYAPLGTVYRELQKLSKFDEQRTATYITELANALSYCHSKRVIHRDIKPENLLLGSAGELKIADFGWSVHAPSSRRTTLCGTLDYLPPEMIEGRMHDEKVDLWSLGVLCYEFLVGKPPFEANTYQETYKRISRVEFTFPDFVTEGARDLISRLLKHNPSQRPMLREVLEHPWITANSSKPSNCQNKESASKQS
The experiment in a line: Aurora A kinase assay ([γ-33P]ATP, CHOCKtide substrate). Particulars: for inhibition at 1 µM: 1.0 μM test compound. The protocol: as §1

The next assay addresses T3, c-Met kinase (Homo sapiens, UniProt P08581).
T3 construct: recombinant N-terminal 6×His-tagged c-Met kinase domain construct expressed from baculovirus; 6xHis (N); made in house
The experiment in a line: c-Met kinase assay (33P incorporation into Poly(Glu-Tyr)). The following applies: 500 nM test compound. The protocol: Inhibition of c-Met kinase activity by compounds disclosed herein was quantified by measuring the amount of [^33P] incorporated into the substrate in the presence of a test compound. Briefly, a reaction mixture of 25 μL final volume containing 5 ng of c-Met kinase (obtained by purifying recombinant N-terminal 6×His-tagged c-Met kinase domain construct expressed from baculovirus), 1 μg of the substrate (Poly (Glu-Tyr, 4:1, Sigma)), kinase reaction buffer (20 mM MOPS pH 7.0, 1 mM EDTA, 5% glycerol, 0.01% Brij-35, 0.1% β-mercaptoethanol, 1 mg/mL BSA, 100 μM ATP, 0.1 μCi per well [^33P]-γ-ATP (2,500-3,000 Ci/mmol)), and a test compound (500 nM, diluted with 4% DMSO) or DMSO (as the control) was incubated at 30° C. for 30 minutes. The reaction was stopped by adding 5 μL of 3% phosphoric acid solution. The resultant reaction solution was then harvested onto a filter plate (UniFilter-96 GF/B, PerkinElmer), washed 20 times for 5 min with d.d. H2O, and followed by the addition of 30 μL of MicroScint™-20 Cocktail (PerkinElmer). The plate was then sealed and counted using a TopCount scintillation detector (PerkinElmer). The percentage of inhibition rate of the test compound was calculated by dividing the retained radioactivity of the test sample with the retained radioactivity of the control sample and shown in Table 3.

T1 sequence (Q96GD4 whole entry): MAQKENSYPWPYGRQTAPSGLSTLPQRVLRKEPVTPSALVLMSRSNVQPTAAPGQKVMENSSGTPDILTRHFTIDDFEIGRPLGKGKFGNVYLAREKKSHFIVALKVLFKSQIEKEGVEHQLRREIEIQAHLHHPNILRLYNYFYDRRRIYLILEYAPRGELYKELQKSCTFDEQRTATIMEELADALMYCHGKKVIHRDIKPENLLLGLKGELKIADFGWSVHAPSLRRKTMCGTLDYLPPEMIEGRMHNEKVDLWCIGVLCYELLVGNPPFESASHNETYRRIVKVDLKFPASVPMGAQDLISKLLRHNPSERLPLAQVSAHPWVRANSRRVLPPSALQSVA
T3 sequence (P08581 1078-1345 limits assumed): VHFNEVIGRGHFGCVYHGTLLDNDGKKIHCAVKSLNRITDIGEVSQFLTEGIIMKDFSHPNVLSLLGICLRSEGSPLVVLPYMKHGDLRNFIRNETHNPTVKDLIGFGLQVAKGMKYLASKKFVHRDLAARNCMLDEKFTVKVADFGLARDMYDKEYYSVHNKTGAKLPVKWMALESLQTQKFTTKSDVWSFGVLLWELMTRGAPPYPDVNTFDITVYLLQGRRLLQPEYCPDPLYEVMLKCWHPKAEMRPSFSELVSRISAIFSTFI

`CCOC(=O)CCc1c(/C=C2\C(=O)Nc3ccc(NS(=O)(=O)c4ccc5ccccc5c4)cc32)[nH]c2c1C(=O)CCC2` [DCB-70191, (Z)-ethyl 3-(2-((5-(naphthalene-2-sulfonamido)-2-oxoindolin-3-ylidene)methyl)-4-oxo-4,5,6,7-tetrahydro-1H-indol-3-yl)propanoate]: the inhibition at 1 µM against Aurora B kinase is 21.2%; against Aurora A kinase, 20.4%. Moreover, on c-Met kinase, the inhibition at 0.5 µM is 19%.
The matching figures for `CC(=O)c1c(C)[nH]c(/C=C2\C(=O)Nc3ccc(S(=O)(=O)Cc4c(Cl)cccc4Cl)cc32)c1CCC(=O)O` [DCB-70202, (Z)-3-(4-acetyl-2-((5-(2,6-dichlorobenzylsulfonyl)-2-oxoindolin-3-ylidene)methyl)-5-methyl-1H-pyrrol-3-yl)propanoic acid]: 7.3%, 40.2% and 85.2%.
The matching figures for `CCCCCCC#Cc1ccc2c(c1)/C(=C/c1[nH]c3c(c1CCC(=O)OCC)C(=O)CCC3)C(=O)N2` [DCB-70172, (Z)-ethyl 3-(2-((5-(oct-1-ynyl)-2-oxoindolin-3-ylidene)methyl)-4-oxo-4,5,6,7-tetrahydro-1H-indol-3-yl)propanoate]: -3.2%, -3.1% and 10.4%.
The matching figures for `CCOC(=O)CCc1c(/C=C2\C(=O)Nc3ccc(S(=O)(=O)Cc4c(Cl)cccc4Cl)cc32)[nH]c2c1C(=O)CC(C)(C)C2` [DCB-70158, (Z)-ethyl 3-(2-((5-(2,6-dichlorobenzylsulfonyl)-2-oxoindolin-3-ylidene)methyl)-6,6-dimethyl-4-oxo-4,5,6,7-tetrahydro-1H-indol-3-yl)propanoate]: 6.1%, 5.2% and 85.4%.
`O=C(O)CCc1c(/C=C2\C(=O)Nc3ccc(NS(=O)(=O)c4ccc5ccccc5c4)cc32)[nH]c2c1C(=O)CCC2` [DCB-70192, (Z)-3-(2-((5-(naphthalene-2-sulfonamido)-2-oxoindolin-3-ylidene)methyl)-4-oxo-4,5,6,7-tetrahydro-1H-indol-3-yl)propanoic acid]: the values for the inhibition at 1 µM against Aurora B kinase and against Aurora A kinase were 21% and 40.6%, respectively. For the same molecule, the inhibition at 0.5 µM on c-Met kinase was 9.9%.
The matching figures for `CCOC(=O)CCc1c(/C=C2\C(=O)Nc3ccc(NS(=O)(=O)c4ccccc4)cc32)[nH]c(C)c1C(C)=O` [DCB-70201, (Z)-ethyl 3-(4-acetyl-5-methyl-2-((2-oxo-5-(phenylsulfonamido)indolin-3-ylidene)methyl)-1H-pyrrol-3-yl)propanoate]: 36.6%, 48.2% and 18.8%.
The matching figures for `CC(=O)c1c(C)[nH]c(/C=C2\C(=O)Nc3ccc(S(=O)(=O)Cc4c(Cl)cccc4Cl)cc32)c1CCC(=O)N1CCN(C)CC1` [DCB-70205, (Z)-3-((4-acetyl-5-methyl-3-(3-(4-methylpiperazin-1-yl)-3-oxopropyl)-1H-pyrrol-2-yl)methylene)-5-(2,6-dichlorobenzylsulfonyl)indolin-2-one]: 2.4%, 11.3% and 97%.
For the molecule `CCOC(=O)CCc1c(/C=C2\C(=O)Nc3ccc(NS(=O)(=O)Cc4ccccc4)cc32)[nH]c2c1C(=O)CCC2` [DCB-70197, (Z)-ethyl 3-(4-oxo-2-((2-oxo-5-(phenylmethylsulfonamido)indolin-3-ylidene)methyl)-4,5,6,7-tetrahydro-1H-indol-3-yl)propanoate], the inhibition at 1 µM against Aurora B kinase is 39.9%; against Aurora A kinase, 48.7%. On c-Met kinase, the inhibition at 0.5 µM worked out at 21.1%.
In the case of `CCOC(=O)CCc1c(/C=C2\C(=O)Nc3ccc(NC(=O)NC45CC6CC(CC(C6)C4)C5)cc32)[nH]c2c1C(=O)CCC2` [DCB-70174, Ethyl 3-(2-((Z)-(5-(3-(1-adamantanyl)ureido)-2-oxoindolin-3-ylidene)methyl)-4-oxo-4,5,6,7-tetrahydro-1H-indol-3-yl)propanoate], the inhibition at 1 µM against Aurora B kinase was -11.4%; at Aurora A kinase it was 2.4%. The inhibition at 0.5 µM against c-Met kinase amounted to 4%.
The matching figures for `CCN(CC)CCNC(=O)CCc1c(/C=C2\C(=O)Nc3ccc(S(=O)(=O)Cc4c(Cl)cccc4Cl)cc32)[nH]c(C)c1C(C)=O` [DCB-70212, (Z)-3-(4-acetyl-2-((5-(2,6-dichlorobenzylsulfonyl)-2-oxoindolin-3-ylidene)methyl)-5-methyl-1H-pyrrol-3-yl)-N-(2-(diethylamino)ethyl)propanamide]: 6.3%, 3.5% and 95.2%.
As to `CCOC(=O)CCc1c(/C=C2\C(=O)Nc3ccc(/N=C/c4ccsc4)cc32)[nH]c2c1C(=O)CCC2` [DCB-70180, ethyl 3-(4-oxo-2-((Z)-(2-oxo-5-((E)-thiophen-3-ylmethyleneamino)indolin-3-ylidene)methyl)-4,5,6,7-tetrahydro-1H-indol-3-yl)propanoate], at Aurora B kinase, the IC50 was found to be 866 nM and the inhibition at 1 µM was 47.4%. The inhibition at 1 µM against Aurora A kinase was determined as 71.5%. In addition, the inhibition at 0.5 µM on c-Met kinase amounted to 5.1%.
For the molecule `CC1(C)CC(=O)c2c([nH]c(/C=C3\C(=O)Nc4ccc(NS(=O)(=O)c5ccccc5)cc43)c2CCC(=O)O)C1` [DCB-70169, (Z)-3-(6,6-dimethyl-4-oxo-2-((2-oxo-5-(phenylsulfonamido)indolin-3-ylidene)methyl)-4,5,6,7-tetrahydro-1H-indol-3-yl)propanoic acid], the inhibition at 1 µM on Aurora B kinase is 31%; on Aurora A kinase it was 79.6%. Further, at c-Met kinase, the inhibition at 0.5 µM turned out to be 10.8%.
Turning to `COc1ccc2c(c1)/C(=C/c1[nH]c3c(c1CCC(=O)O)C(=O)CCC3)C(=O)N2` [DCB-70167, (Z)-3-(2-((5-methoxy-2-oxoindolin-3-ylidene)methyl)-4-oxo-4,5,6,7-tetrahydro-1H-indol-3-yl)propanoic acid], the inhibition at 1 µM at Aurora B kinase is 19.8%. In addition, at Aurora A kinase, inhibition was half-maximal at 134 nM (IC50) and the inhibition at 1 µM came out at 86.4%. The inhibition at 0.5 µM at c-Met kinase is 11.8%.
For the molecule `CCOC(=O)CCc1c(/C=C2\C(=O)Nc3ccc(NCc4ccc(OC)cc4)cc32)[nH]c2c1C(=O)CCC2` [DCB-70175, (Z)-ethyl 3-(2-((5-(4-methoxybenzylamino)-2-oxoindolin-3-ylidene)methyl)-4-oxo-4,5,6,7-tetrahydro-1H-indol-3-yl)propanoate], the figures for the inhibition at 1 µM on Aurora B kinase and against Aurora A kinase were 8.4% and 30.7%, respectively. In addition, the inhibition at 0.5 µM against c-Met kinase is 17.3%.
On to `CC1(C)CC(=O)c2c([nH]c(/C=C3\C(=O)Nc4ccc(S(=O)(=O)Cc5c(Cl)cccc5Cl)cc43)c2CCC(=O)O)C1` [DCB-70159, (Z)-3-(2-((5-(2,6-dichlorobenzylsulfonyl)-2-oxoindolin-3-ylidene)methyl)-6,6-dimethyl-4-oxo-4,5,6,7-tetrahydro-1H-indol-3-yl)propanoic acid], for which the inhibition at 1 µM was -5.5% on Aurora B kinase and 13.9% against Aurora A kinase. Also, at c-Met kinase, the inhibition at 0.5 µM turned out to be 81.3%.
As to `CCN(CC)CCNC(=O)CCc1c(/C=C2\C(=O)Nc3ccc(S(=O)(=O)Cc4c(Cl)cccc4Cl)cc32)[nH]c2c1C(=O)CCC2` [DCB-70223, (Z)-3-(2-((5-(2,6-dichlorobenzylsulfonyl)-2-oxoindolin-3-ylidene)methyl)-4-oxo-4,5,6,7-tetrahydro-1H-indol-3-yl)-N-(2-(diethylamino)ethyl)propanamide], the results for the inhibition at 1 µM against Aurora B kinase and at Aurora A kinase were 43.7% and 68.5%, respectively.
